Laboratory results taken from patent US20090143279A1 (priority 2007, published 2009).
Where two headings read alike, the source gives them in different places.

Tests used:
[1] = tested on: mitochondrial membrane potential; assay type: cell-based, mouse
reactive oxygen species = assay type: cell-based, mouse
OXPHOS gene expression = assay type: cell-based, mouse
nuOXPHOS transcripts = assay type: cell-based, mouse
mtOXPHOS transcripts = assay type: cell-based, mouse
cytochrome c = assay type: cell-based, mouse
[2] = tested on: cellular dehydrogenase activity
[3] = composite Z-score vs DMSO, Conc 10.62 μM
[4] = composite Z-score vs mock-treated (DMSO) wells, concentration of each compound in μM
[5] = 20 μM, composite Z-score vs DMSO
[6] = Conc 20 μM, normalized score vs mock-treated (DMSO) wells
[7] = composite Z-score vs mock-treated (DMSO) wells, Conc 20 μM
[8] = composite Z-score vs DMSO wells, Conc 20 μM
[9] = composite Z-score vs DMSO, Conc 20 μM

With `CC(=O)C(=Cc1ccccc1)CC(=O)O` [3-benzylidenyl-levulinic acid] the “ΔΨm (composite Z-score)” value [1] was −0.170, the “ROS (composite Z-score)” value (reactive oxygen species) was 0.382 and the “GE-HTS (composite Z-score)” value (OXPHOS gene expression) was −0.639. The “nucOX (composite Z-score)” value (nuOXPHOS transcripts) was −0.553, the “mitoOX (composite Z-score)” value (mtOXPHOS transcripts) was −0.647 and the “cyt c (composite Z-score)” value (cytochrome c) was −0.165. For the same compound, the “Viability (composite Z-score)” value (C2C12 myotubes) was −0.431 and the “MTT (composite Z-score)” value [2] was −0.665.

For `CC(=O)[C@@]1(O)CC[C@H]2[C@@H]3C[C@H](C)C4=CC(=O)C=C[C@]4(C)[C@@]3(F)[C@@H](O)C[C@@]21C` [fluorometholone], the ΔΨm [1, 3] was −0.299, the ROS (reactive oxygen species; [3]) was 2.141 and the GE-HTS (OXPHOS gene expression; [3]) was 0.446. It also gave a nucOX (nuOXPHOS transcripts; [3]) of 0.038, a mitoOX (mtOXPHOS transcripts; [3]) of 1.187 and a cyt c (cytochrome c; [3]) of −0.324. For the same compound, the Viability (C2C12 myotubes; [3]) was −0.965 and the MTT [2, 3] was −1.306.

With `CC(C(=O)O)[C@H]1CCC2C3CC=C4C[C@@H](O)CC[C@]4(C)C3CC[C@@]21C` (stereo partly drawn) the ΔΨm [1, 4] was −0.402, the ROS (reactive oxygen species; [4]) was 0.315 and the GE-HTS (OXPHOS gene expression; [4]) was 0.756. It also gave a nucOX (nuOXPHOS transcripts; [4]) of 0.793, a mitoOX (mtOXPHOS transcripts; [4]) of 0.486 and a cyt c (cytochrome c; [4]) of −0.309. For the same compound, the Viability (C2C12 myotubes; [4]) was −0.295 and the MTT [2, 4] was −0.244.

In the case of `COC(=O)/C(=C1/OC(=O)C(c2ccccc2)=C1O)c1ccccc1` [vulpinic acid], the ΔΨm [1, 5] is reported as −3.484, the ROS (reactive oxygen species; [5]) is reported as 1.407 and the GE-HTS (OXPHOS gene expression; [5]) is reported as −0.152. For the same compound, the nucOX (nuOXPHOS transcripts; [5]) was 0.168, the mitoOX (mtOXPHOS transcripts; [5]) was −0.792 and the cyt c (cytochrome c; [5]) was 1.037. For the same compound, the Viability (C2C12 myotubes; [5]) was −1.120 and the MTT [2, 5] was 0.403.

With `COc1c(O)cccc1O` [2-methoxyresorcinol] the “ΔΨm (composite Z-score)” value [1, 6] was −0.536, the “ROS (composite Z-score)” value (reactive oxygen species; [6]) was 0.864 and the “GE-HTS (composite Z-score)” value (OXPHOS gene expression; [6]) was 0.218. For the same compound, the “nucOX (composite Z-score)” value (nuOXPHOS transcripts; [6]) was −0.150, the “mitoOX (composite Z-score)” value (mtOXPHOS transcripts; [6]) was 0.954 and the “cyt c (composite Z-score)” value (cytochrome c; [6]) was −0.146. The “Viability (composite Z-score)” value (C2C12 myotubes; [6]) was 0.514 and the “MTT (composite Z-score)” value [2, 6] was 0.266.

In the case of `C=C1C2=CC(=O)O[C@@H](c3ccoc3)[C@]2(C)CC[C@@H]1[C@@]1(C)C=CC(=O)C(C)(C)[C@@H]1CC(=O)OC` [deoxyandirobin], the ΔΨm [1, 7] is reported as 0.381, the ROS (reactive oxygen species; [7]) is reported as −1.077 and the GE-HTS (OXPHOS gene expression; [7]) is reported as 1.352. It also gave a nucOX (nuOXPHOS transcripts; [7]) of 1.240, a mitoOX (mtOXPHOS transcripts; [7]) of 1.246 and a cyt c (cytochrome c; [7]) of 1.196. It also gave a Viability (C2C12 myotubes; [7]) of 0.894 and an MTT [2, 7] of 0.232.

`CCn1cc(C(=O)O)c(=O)c2cc3c(cc21)OCO3` [oxolinic acid] showed a ΔΨm [1, 8] of −0.640, an ROS (reactive oxygen species; [8]) of 0.681 and a GE-HTS (OXPHOS gene expression; [8]) of 0.217. The nucOX (nuOXPHOS transcripts; [8]) was 0.211, the mitoOX (mtOXPHOS transcripts; [8]) was 0.171 and the cyt c (cytochrome c) was 0.227. For the same compound, the cyt c (cytochrome c; [8]) was 0.083, the Viability (C2C12 myotubes; [8]) was −0.913 and the MTT [2, 8] was −1.598.

With `COc1ccc2c(c1)OC/C(=C/c1ccc(OC)c(OC)c1)C2=O` [sappanone A trimethyl ether] the “ΔΨm (composite Z-score)” value [1, 6] was −0.290, the “ROS (composite Z-score)” value (reactive oxygen species; [6]) was 0.120 and the “GE-HTS (composite Z-score)” value (OXPHOS gene expression; [6]) was 1.090. For the same compound, the “nucOX (composite Z-score)” value (nuOXPHOS transcripts; [6]) was 1.458, the “mitoOX (composite Z-score)” value (mtOXPHOS transcripts; [6]) was 0.094 and the “cyt c (composite Z-score)” value (cytochrome c; [6]) was −0.471. For the same compound, the “Viability (composite Z-score)” value (C2C12 myotubes; [6]) was −0.259 and the “MTT (composite Z-score)” value [2, 6] was −0.980.

For `CC(=O)[C@H]1CC[C@H]2[C@@H]3CCC4C[C@H](O)CC[C@]4(C)[C@H]3C[C@H](O)[C@]12C` (stereo partly drawn) [dihydroxy (3alpha,12alpha)pregnan-20-one], the ΔΨm [1, 7] was −0.540, the ROS (reactive oxygen species; [7]) was 0.206 and the GE-HTS (OXPHOS gene expression; [7]) was −0.928. For the same compound, the nucOX (nuOXPHOS transcripts; [7]) was −0.972, the mitoOX (mtOXPHOS transcripts; [7]) was −0.621 and the cyt c (cytochrome c; [7]) was −0.685. For the same compound, the Viability (C2C12 myotubes; [7]) was −0.622 and the MTT [2, 7] was −1.160.

Compound `C[C@@H]1C[C@H]2CC(=O)[C@H]3CCCN4CCC[C@H]2[C@]34C1` [lycopodine] has a ΔΨm [1, 9] of −0.239, an ROS (reactive oxygen species; [9]) of 0.500 and a GE-HTS (OXPHOS gene expression; [9]) of −0.150. For the same compound, the nucOX (nuOXPHOS transcripts; [9]) was −0.028, the mitoOX (mtOXPHOS transcripts; [9]) was −0.411 and the cyt c (cytochrome c; [9]) was −0.093. The Viability (C2C12 myotubes; [9]) was −0.466 and the MTT [2, 9] was −1.139.

With `CC(C)c1c(O)ccc2c1CC[C@H]1[C@@](C)(CO)CCC[C@]21C` [19-hydroxytotarol] the ΔΨm [1, 7] was 0.453, the ROS (reactive oxygen species; [7]) was 1.558 and the GE-HTS (OXPHOS gene expression; [7]) was −0.041. The nucOX (nuOXPHOS transcripts; [7]) was −0.128, the mitoOX (mtOXPHOS transcripts; [7]) was 0.086 and the cyt c (cytochrome c; [7]) was 1.305. For the same compound, the Viability (C2C12 myotubes; [7]) was −0.207 and the MTT [2, 7] was 1.198.

For `CC(N/C(=N\C#N)Nc1ccncc1)C(C)(C)C` (stereo not drawn) [pinacidil], the ΔΨm [1] was −0.614, the ΔΨm [1, 9] was −0.949 and the ROS (reactive oxygen species) was 0.383. It also gave an ROS (reactive oxygen species; [9]) of 0.655, a GE-HTS (OXPHOS gene expression) of −0.146 and a GE-HTS (OXPHOS gene expression; [9]) of −0.515. The nucOX (nuOXPHOS transcripts) was 0.038, the nucOX (nuOXPHOS transcripts; [9]) was −0.301 and the mitoOX (mtOXPHOS transcripts) was −0.498. The mitoOX (mtOXPHOS transcripts; [9]) was −0.814, the cyt c (cytochrome c) was 0.027 and the cyt c (cytochrome c; [9]) was 1.030. The Viability (C2C12 myotubes) was −0.477, the Viability (C2C12 myotubes; [9]) was −0.062 and the MTT [2] was −0.889. The MTT [2, 9] was −0.142.
